Literature values as cited in patent publication US10071054B2, “Econazole composition and methods of treatment therewith” (Exeltis USA Dermatology, Inc., priority 2010, dated 2018).

Tests used:
[1] = Liao et al., Yao Xue Xue Bao 28 (1):22-7 (1993)
dermatophytes and yeasts = settings: most strains of Epidermophyton floccosum, Microsporum audouinii, M. canis, M. gypseum, Trichophyton mentagrophytes, T. rubrum, T. tonsurans, Candida albicans, Malassezia furfur

Row | Structure (SMILES) | antifungal activity of stereoisomer [1] | activity against dermatophytes and yeasts (dermatophytes and yeasts)
1 | Clc1ccc(CO[C@@H](Cn2ccnc2)c2ccc(Cl)cc2Cl)cc1 [(R)-(−)-econazole] | greater antifungal activity | 
2 | Clc1ccc(COC(Cn2ccnc2)c2ccc(Cl)cc2Cl)cc1 (centres unmarked) [Econazole nitrate] |  | shown activity
